Reference: patent publication US12371454B2, “Cyclic peptide compound having Kras inhibitory action” (priority 2019, dated 2025)
Starred links: 1 amine or outer side, 2 acyl side, 3 side chain; linkers in the order of their positions; H or OH if unused. Positions of bridges follow the written chain, without caps; N, C: chain ends. Non-standard residues stand in square brackets, D forms with d. Residues, ends and D or L forms follow the SMILES beside them. *: point of attachment. NMeAbu(3,3-F2-piperidino) = CN[C@@H](CCN1CCCC(F)(F)C1)C(=O)O; hPhe(3-Cl-4-CF3) = N[C@@H](CCc1ccc(C(F)(F)F)c(Cl)c1)C(=O)O; NMeDab(N,N-(CH2CF2CH2)) = CN[C@@H](CCN1CC(F)(F)C1)C(=O)O; hPhe(3-F,4-CF3) = N[C@@H](CCc1ccc(C(F)(F)F)c(F)c1)C(=O)O; hPhe(4-CF3) = N[C@@H](CCc1ccc(C(F)(F)F)cc1)C(=O)O; NMePhe(4-Cl) = CN[C@@H](Cc1ccc(Cl)cc1)C(=O)O; X4 = O=C([C@H](Cc1cc(F)cc(Cl)c1)N[*:1])[*:2]; NMeNle(6-CHF2) = CN[C@@H](CCCCC(F)F)C(=O)O; NMedβ3hAla = C[C@H](CC(=O)[*:2])N(C)[*:1]; Abu(4,4,4-F3) = N[C@@H](CC(F)(F)F)C(=O)O; hPhe(4-F) = N[C@@H](CCc1ccc(F)cc1)C(=O)O; NMeGly(cPent) = CN[C@H](C(=O)O)C1CCCC1; dαMeGly(allyl) = C=CC[C@@](C)(N)C(=O)O; Phe(2-F) = N[C@@H](Cc1ccccc1F)C(=O)O; NMe4Pal = CN[C@@H](Cc1ccncc1)C(=O)O; NMeY = CN[C@@H](Cc1ccc(O)cc1)C(=O)O; NMeCha = CN[C@@H](CC1CCCCC1)C(=O)O; Azetidine(3,3-F2) = FC1(F)CN(*)C1; NMeChg = CN[C@H](C(=O)O)C1CCCCC1; NMeF = CN[C@@H](Cc1ccccc1)C(=O)O; NMeD = CN[C@@H](CC(=O)O)C(=O)O; NMeL = CN[C@@H](CC(C)C)C(=O)O; NMeV = CN[C@H](C(=O)O)C(C)C; d(β3hA) = C[C@@H](N)CC(=O)O; NMeS = CN[C@@H](CO)C(=O)O; Pip = O=C(O)[C@@H]1CCCCN1; NMeA = CN[C@@H](C)C(=O)O; NMeAib = CNC(C)(C)C(=O)O; Nle = CCCC[C@H](N)C(=O)O; Piperidide = C1CCN(*)CC1; Pyrrolidide = C1CCN(*)C1; dNMeA = CN[C@H](C)C(=O)O; Ac5c = NC1(C(=O)O)CCCC1; Aze = O=C(O)[C@@H]1CCN1; Aib = CC(C)(N)C(=O)O; Isopentyl = CC(C)CC*; Sar = CNCC(=O)O

Biological target: T1, Kras and SOS1 (biotin-tagged human Kras loaded with GDP, His-tagged human SOS1) (Homo sapiens, UniProt P01116, G12D)
T1 construct: made in house; host or cells: E. coli (stated for Kras only)
T1 sequence (P01116 1-188 isoform P01116-2 G12D): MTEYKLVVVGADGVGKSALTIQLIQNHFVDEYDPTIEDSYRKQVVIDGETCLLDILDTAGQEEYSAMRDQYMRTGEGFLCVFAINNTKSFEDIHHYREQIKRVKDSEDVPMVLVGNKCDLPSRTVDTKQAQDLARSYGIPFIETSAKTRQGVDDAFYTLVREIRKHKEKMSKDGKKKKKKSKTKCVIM
Experiment: Protein-protein interaction inhibition between Kras and SOS1 (KrasGl2D-SOS PPI) using AlphaScreen
Type: binding
Conditions: AlphaScreen; biotin-tagged human Kras loaded with GDP, His-tagged human SOS1; read-out: KRAS G12D-SOS PPI IC50
In short: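 AlphaScreen format: Ni donor beads capture His-SOS1, streptavidin acceptor beads capture biotinylated Kras (E. coli-expressed, GDP-loaded post-purification). Excite 680 nm, read 520-620 nm.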

Row | Structure (SMILES) | IC50 [nM]
1 | CC[C@H](C)[C@@H]1NC(=O)[C@H](C)N(C)C(=O)C[C@@H](C(=O)N2CCCC2)NC(=O)[C@H](CC(C)C)N(C)C(=O)[C@H](Cc2ccccc2)N(C)C(=O)[C@H](CC(C)C)NC(=O)[C@H](CCc2ccc(F)cc2)NC(=O)CN(C)C(=O)[C@H](Cc2ccc(Cl)cc2)N(C)C(=O)CN(C)C(=O)CN(C)C1=O [Compound 646] ([NMeA]I[Sar][Sar][NMePhe(4-Cl)][Sar][hPhe(4-F)]L[NMeF][NMeL]D-Pyrrolidide; lactam N-11) | 120
2 | CC[C@H](C)[C@@H]1NC(=O)[C@@H]2CCCCN2C(=O)C[C@@H](C)N(C)C(=O)[C@H](CC(C)C)NC(=O)C(C)(C)N(C)C(=O)[C@H](CC(C)C)NC(=O)[C@H](CCc2ccc(C(F)(F)F)c(F)c2)NC(=O)CN(C)C(=O)[C@H](CC2CCCCC2)N(C)C(=O)CN(C)C(=O)CN(C)C1=O [Compound 649] (cyclo(I[Sar][Sar][NMeCha][Sar][hPhe(3-F,4-CF3)]L[NMeAib]L[NMedβ3hAla][Pip])) | 360
3 | CC[C@H](C)[C@@H]1NC(=O)[C@H](CC(C)C)N(C)C(=O)C[C@@H](C(=O)N2CCCCC2)N(C)C(=O)[C@H](CCCCC(F)F)N(C)C(=O)C2(CCCC2)NC(=O)[C@@H]2CCCN2C(=O)[C@H](CCc2ccc(C(F)(F)F)c(Cl)c2)NC(=O)CN(C)C(=O)[C@H](CC2CCCCC2)N(C)C(=O)CN(C)C(=O)CN(C)C1=O [Compound 653] ([NMeL]I[Sar][Sar][NMeCha][Sar][hPhe(3-Cl-4-CF3)]P[Ac5c][NMeNle(6-CHF2)][NMeD]-Piperidide; lactam N-11) | 44
4 | CC[C@H](C)[C@@H]1NC(=O)[C@H](C)N(C)C(=O)C[C@@H](C)NC(=O)[C@H](CC(C)C)N(C)C(=O)[C@H](Cc2ccccc2)N(C)C(=O)[C@@H]2CCN2C(=O)[C@H](CCc2ccc(C(F)(F)F)cc2)NC(=O)CN(C)C(=O)[C@H](Cc2ccc(Cl)cc2)N(C)C(=O)CN(C)C(=O)CN(C)C1=O [Compound 654] (cyclo([Aze][NMeF][NMeL][d(β3hA)][NMeA]I[Sar][Sar][NMePhe(4-Cl)][Sar][hPhe(4-CF3)])) | 110
5 | CC[C@H](C)[C@@H]1NC(=O)[C@H](C)N(C)C(=O)C[C@@H](C(=O)N2CCCCC2)N(C)C(=O)[C@H](C(C)C)N(C)C(=O)[C@H](COC)NC(=O)[C@H](CCN2CC(F)(F)C2)N(C)C(=O)[C@H](CCc2ccc(C(F)(F)F)c(Cl)c2)NC(=O)CN(C)C(=O)[C@H](CC2CCCCC2)N(C)C(=O)CN(C)C(=O)CN(C)C1=O [Compound 655] ([NMeA]I[Sar][Sar][NMeCha][Sar][hPhe(3-Cl-4-CF3)][NMeDab(N,N-(CH2CF2CH2))]S(Me)[NMeV][NMeD]-Piperidide; lactam N-11) | 4.9
6 | CC[C@H](C)[C@@H]1NC(=O)[C@H](CC(C)C)N(C)C(=O)C[C@@H](C(=O)N2CCCCC2)N(C)C(=O)[C@H](C2CCCCC2)N(C)C(=O)C2(CCCC2)NC(=O)[C@H](Cc2ccncc2)N(C)C(=O)[C@H](CCc2ccc(C(F)(F)F)c(Cl)c2)NC(=O)CN(C)C(=O)[C@H](CC2CCCCC2)N(C)C(=O)[C@@H]2CCN2C(=O)[C@H](C)N(C)C1=O [Compound 656] ([NMeL]I[NMeA][Aze][NMeCha][Sar][hPhe(3-Cl-4-CF3)][NMe4Pal][Ac5c][NMeChg][NMeD]-Piperidide; lactam N-11) | 17
7 | CC[C@H](C)[C@@H]1NC(=O)[C@H](C)N(C)C(=O)C[C@@H](C(=O)N2CCCC2)NC(=O)[C@H](CC(C)C)N(C)C(=O)[C@H](Cc2ccccc2)N(C)C(=O)[C@H](CC(C)C)NC(=O)[C@H](Cc2cc(F)cc(Cl)c2)NC(=O)CN(C)C(=O)[C@H](Cc2ccc(Cl)cc2)N(C)C(=O)CN(C)C(=O)CN(C)C1=O [Compound 657] ([NMeA]I[Sar][Sar][NMePhe(4-Cl)][Sar][X4]L[NMeF][NMeL]D-Pyrrolidide; lactam N-11) | 310
8 | CC[C@H](C)[C@@H]1NC(=O)[C@H](C)N(C)C(=O)C[C@@H](C)NC(=O)[C@H](CC(C)C)N(C)C(=O)C(C)(C)NC(=O)[C@@H]2CCCN2C(=O)[C@H](CCc2ccc(C(F)(F)F)cc2)NC(=O)CN(C)C(=O)[C@H](Cc2ccc(Cl)cc2)N(C)C(=O)CN(C)C(=O)CN(C)C1=O [Compound 664] (cyclo([Aib][NMeL][d(β3hA)][NMeA]I[Sar][Sar][NMePhe(4-Cl)][Sar][hPhe(4-CF3)]P)) | 25
9 | C=CC[C@@]1(C)NC(=O)[C@@H]2CCCN2C(=O)[C@H](CCc2ccc(C(F)(F)F)c(Cl)c2)NC(=O)CN(C)C(=O)[C@H](CC2CCCCC2)N(C)C(=O)CN(C)C(=O)CN(C)C(=O)[C@H]([C@@H](C)CC)NC(=O)[C@H](CC(C)C)N(C)C(=O)C[C@@H](C)NC(=O)[C@H](C(C)C)N(C)C1=O [Compound 665] (cyclo(I[Sar][Sar][NMeCha][Sar][hPhe(3-Cl-4-CF3)]P[dαMeGly(allyl)][NMeV][d(β3hA)][NMeL])) | 37
10 | CC[C@H](C)[C@@H]1NC(=O)[C@H](C)N(C)C(=O)C[C@@H](C)NC(=O)[C@H](C(C)C)N(C)C(=O)C2(CCCC2)NC(=O)[C@@H]2CCCN2C(=O)[C@H](CCc2ccc(C(F)(F)F)c(Cl)c2)NC(=O)[C@H]2CCCN2C(=O)[C@H](CC2CCCCC2)N(C)C(=O)[C@@H]2CCCN2C(=O)CN(C)C1=O [Compound 666] (cyclo([Ac5c][NMeV][d(β3hA)][NMeA]I[Sar]P[NMeCha][dP][hPhe(3-Cl-4-CF3)]P)) | 25
11 | CC[C@H](C)[C@@H]1NC(=O)[C@@H]2CCCCN2C(=O)C[C@@H](C(=O)N2CCCCC2)N(C)C(=O)[C@H](C(C)C)N(C)C(=O)C2(CCCC2)NC(=O)[C@@H]2CCCN2C(=O)[C@H](CCc2ccc(C(F)(F)F)c(F)c2)NC(=O)CN(C)C(=O)[C@H](CC2CCCCC2)N(C)C(=O)CN(C)C(=O)CN(C)C1=O [Compound 670] ([Pip]I[Sar][Sar][NMeCha][Sar][hPhe(3-F,4-CF3)]P[Ac5c][NMeV][NMeD]-Piperidide; lactam N-11) | 5.1
12 | CC[C@H](C)[C@@H]1NC(=O)[C@H](C)N(C)C(=O)C[C@@H](C)NC(=O)[C@H](C2CCCC2)N(C)C(=O)C2(CCCC2)NC(=O)[C@@H]2CCCN2C(=O)[C@H](CCc2ccc(C(F)(F)F)c(Cl)c2)NC(=O)[C@@H](C)N(C)C(=O)[C@H](Cc2ccccc2)N(C)C(=O)[C@@H]2CCN2C(=O)[C@H](C)N(C)C1=O [Compound 671] (cyclo([Ac5c][NMeGly(cPent)][d(β3hA)][NMeA]I[NMeA][Aze][NMeF][dNMeA][hPhe(3-Cl-4-CF3)]P)) | 52
13 | CC[C@H](C)[C@@H]1NC(=O)[C@H](C)N(C)C(=O)C[C@@H](C(=O)N2CCCC2)NC(=O)[C@H](CC(C)C)N(C)C(=O)[C@H](COCCC(C)C)N(C)C(=O)[C@H](CC(C)C)NC(=O)[C@H](CCc2ccc(C(F)(F)F)cc2)NC(=O)CN(C)C(=O)[C@H](Cc2ccc(Cl)cc2)N(C)C(=O)CN(C)C(=O)CN(C)C1=O [Compound 675] ([NMeA]I[Sar][Sar][NMePhe(4-Cl)][Sar][hPhe(4-CF3)]L[NMeS](Isopentyl)[NMeL]D-Pyrrolidide; lactam N-11) | 59
14 | CC[C@H](C)[C@@H]1NC(=O)[C@H](C)N(C)C(=O)C[C@@H](C(=O)N2CCCCC2)N(C)C(=O)[C@H](C(C)C)N(C)C(=O)[C@H](CC(F)(F)F)NC(=O)[C@H](CC(=O)N2CC(F)(F)C2)N(C)C(=O)[C@H](CCc2ccc(C(F)(F)F)c(Cl)c2)NC(=O)CN(C)C(=O)[C@H](CC2CCCCC2)N(C)C(=O)CN(C)C(=O)CN(C)C1=O [Compound 679] ([NMeA]I[Sar][Sar][NMeCha][Sar][hPhe(3-Cl-4-CF3)][NMeD](Azetidine(3,3-F2))[Abu(4,4,4-F3)][NMeV][NMeD]-Piperidide; lactam N-11) | 37
15 | CCCC[C@@H]1NC(=O)[C@H](Cc2ccccc2F)NC(=O)CN(C)C(=O)[C@H](Cc2ccc(OC)cc2)N(C)C(=O)CN(C)C(=O)CN(C)C(=O)[C@H]([C@@H](C)CC)NC(=O)[C@H](CC(C)C)N(C)C(=O)C[C@@H](C(=O)N2CCCCC2)N(C)C(=O)[C@H](CC(C)C)NC(=O)[C@H](Cc2ccc(OC)cc2)N(C)C1=O [Compound 681] ([NMeL]I[Sar][Sar][NMeY](Me)[Sar][Phe(2-F)][Nle][NMeY](Me)L[NMeD]-Piperidide; lactam N-11) | 5.9
16 | CC[C@H](C)[C@@H]1NC(=O)[C@H](C)N(C)C(=O)C[C@@H](C(=O)N2CCCCC2)N(C)C(=O)[C@H](C(C)C)N(C)C(=O)C2(CCCC2)NC(=O)[C@H](CCN2CCCC(F)(F)C2)N(C)C(=O)[C@H](CCc2ccc(C(F)(F)F)c(Cl)c2)NC(=O)CN(C)C(=O)[C@H](CC2CCCCC2)N(C)C(=O)[C@@H]2CCN2C(=O)[C@H](C)N(C)C1=O [Compound 682] ([NMeA]I[NMeA][Aze][NMeCha][Sar][hPhe(3-Cl-4-CF3)][NMeAbu(3,3-F2-piperidino)][Ac5c][NMeV][NMeD]-Piperidide; lactam N-11) | 20
17 | CC[C@H](C)[C@@H]1NC(=O)[C@H](CC(C)C)N(C)C(=O)C[C@@H](C)N(C)C(=O)[C@H](CC(C)C)NC(=O)C(C)(C)N(C)C(=O)[C@H](CC(C)C)NC(=O)[C@H](CCc2ccc(C(F)(F)F)c(F)c2)NC(=O)CN(C)C(=O)[C@H](CC2CCCCC2)N(C)C(=O)[C@@H]2CCN2C(=O)[C@H](C)N(C)C1=O [Compound 686] (cyclo([Aze][NMeCha][Sar][hPhe(3-F,4-CF3)]L[NMeAib]L[NMedβ3hAla][NMeL]I[NMeA])) | 170
18 | CC[C@H](C)[C@@H]1NC(=O)[C@H](CC(C)C)N(C)C(=O)C[C@@H](C(=O)N2CCCCC2)N(C)C(=O)[C@H](C2CCCCC2)N(C)C(=O)C2(CCCC2)NC(=O)[C@H](CC(=O)O)N(C)C(=O)[C@H](CCc2ccc(C(F)(F)F)c(Cl)c2)NC(=O)CN(C)C(=O)[C@H](CC2CCCCC2)N(C)C(=O)CN(C)C(=O)CN(C)C1=O [Compound 688] ([NMeL]I[Sar][Sar][NMeCha][Sar][hPhe(3-Cl-4-CF3)][NMeD][Ac5c][NMeChg][NMeD]-Piperidide; lactam N-11) | 2.3
